Measured values taken from paper PMC12284294 (iScience, 2025).
Entries after “also recorded” stand apart in the source; their conditions may differ. Peptide text beside a SMILES is read from it.

Columns and labels:
neutrophils = assay type: cell-based, human
[1] = test system: MMP-9 release of isolated PMNs; assay type: cell-based, human; conditions: activator mix 3 μM with MPR peptide, n = 5
[2] = test system: human polymorphonuclear granulocytes (PMN; neutrophils); assay type: cell-based; conditions: mix at 3 μM, 1 μM, 0.3 μM; MPR peptide 10 μM co-applied, n = 3
human FPR2 = assay type: cell-based; conditions: MPR peptides 30 μM, n = 3
human FPR3 = assay type: cell-based; conditions: MPR peptides 30 μM, n = 3
FPR1 = target: T1, FPR1 (Homo sapiens, UniProt P21462); experiment: cell-based; assay type: binding
T1 construct: expressed in transfected cells; host or cells: HEK293T
T1 sequence (P21462 1-350): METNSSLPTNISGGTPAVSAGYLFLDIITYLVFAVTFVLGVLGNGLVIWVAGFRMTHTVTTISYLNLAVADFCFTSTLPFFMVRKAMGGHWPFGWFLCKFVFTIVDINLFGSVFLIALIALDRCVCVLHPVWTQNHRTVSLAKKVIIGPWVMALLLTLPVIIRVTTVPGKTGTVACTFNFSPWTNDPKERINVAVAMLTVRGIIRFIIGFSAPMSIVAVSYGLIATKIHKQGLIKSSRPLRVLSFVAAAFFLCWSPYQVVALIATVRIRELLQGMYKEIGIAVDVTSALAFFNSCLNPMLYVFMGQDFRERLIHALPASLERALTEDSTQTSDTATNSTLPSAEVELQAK

[3] = test system: neutrophil-like differentiated HL-60 cells (dHL-60); assay type: cell-based, human; conditions: CV peptides 10 μM, n = 3–5
[4] = test system: ERK1/2 phosphorylation via FPR1; experiment: ERK1/2 phosphorylation assay in FPR1-transfected HEK293T cells; assay type: cell-based, human; conditions: MPR peptide 10 μM, 15 min
Method: 300.000 cells were seeded in each well of an uncoated 12-well plate. After 30 min settling time on ice, cells were treated with the respective stimulants and incubated at 37°C, 5% CO2 for 15 min. Cells were subsequently washed with 500 μL PBS and then lysed with 250 μL protein extraction buffer (50 mM Tris-HCl pH 8.0, 5 mM EDTA, 150 mM NaCl, 0.5% [v/v] Triton-X, 5 mM DTT, Roche complete protease inhibitor) for 5 min on ice. Lysates were then placed into protein low bind tubes (Eppendorf) and treated for 20 min in an ultrasonic bath. Samples were centrifuged at 4°C, 12.000 rpm for 20 min to remove debris. Supernatants were collected and stored at −20°C until further use. Protein concentrations were determined using ROTINanoquant in a F[…] multimode reader. Samples were mixed with LDS sample buffer and NuPAGE reduction agent and subsequently heated at 70°C for 10 min 20 μg of each sample were loaded onto a 10% Bis-Tris gel. SDS-PAGE was performed at […] for 40 min. Proteins were blotted onto nitrocellulose membranes using a Wet Tank blotting system at 350 mA for 60 min. Transfer was controlled by Ponceau S staining. Membranes were then blocked with 3% BSA and 0.1% Tween 20 in PBS (PBST) for 60 min. […] Detection of luminescence signals was performed with ECL Prime Kit in a LumiImager. […] Signals of actin staining were measured as described above. […]

FPR2 = conditions: cited from earlier work
Text: (§1) Besides viral peptides that interact with FPR1 and FPR2, we identified a large novel group of FPR3 specific viral activators - a receptor for which very few biological relevant activators have been described yet,[53]^,[72] leaving much room for speculations about its major biological function.[1]^,[2] In contrast to FPR1 and FPR2, for which a large panel of receptor subtype-selective ligands have been described, only two biological relevant agonists with a known preference for FPR3 were identified. One is the mitochondrial-derived neuroprotective peptide Humanin[51]^,[52]^,[73] that binds to F ...

FPR3 = conditions: cited from earlier work
Text: as §1

For CC[C@H](C)[C@H](NC(=O)[C@H](Cc1ccc(O)cc1)NC(=O)[C@@H](NC(=O)[C@@H](N)CCC(=O)O)[C@@H](C)O)C(=O)N[C@@H](CCCCN)C(=O)N[C@@H](Cc1c[nH]c2ccccc12)C(=O)N1CCC[C@H]1C(=O)N[C@@H](Cc1c[nH]c2ccccc12)C(=O)N[C@@H](Cc1c[nH]c2ccccc12)C(=O)N[C@H](C(=O)N[C@@H](Cc1c[nH]c2ccccc12)C(=O)N[C@@H](CC(C)C)C(=O)O)C(C)C [CV1], the “inhibition of the migratory response to the activator peptide mix” value (neutrophils; MPR peptide 10 μM co-applied, n = 5) was “near complete inhibition”, the “effect on activator-mix-triggered MMP-9 release” value [1] was “attenuated” and the “effect on activator-mix-induced calcium flux in neutrophils” value [2] was “calcium flux suppression”.
In the case of CSCC[C@H](N)C(=O)N[C@@H](Cc1ccc(O)cc1)C(=O)N[C@H](C(=O)N[C@@H](CCCCN)C(=O)N[C@@H](Cc1c[nH]c2ccccc12)C(=O)N1CCC[C@H]1C(=O)N[C@@H](Cc1c[nH]c2ccccc12)C(=O)N[C@@H](Cc1ccc(O)cc1)C(=O)N[C@H](C(=O)N[C@@H](Cc1c[nH]c2ccccc12)C(=O)N[C@@H](CC(C)C)C(=O)O)C(C)C)C(C)C [CV2*] (H-MYVKWPWYVWL-OH; N-terminus and C-terminus assumed), the “calcium levels in FPR2 transfected cells” value (human FPR2) is reported as “strongest”, the neutrophil migration (neutrophils; MPR peptide 10 μM, 90 min, n = 3-5) is reported as “triggers” and the “calcium response of FPR3-transfected cells” value (human FPR3) is reported as “responded; also recorded: strongest; also recorded: FPR3 activation”. The “binding affinity for FPR1, FPR2, and FPR3, fold lower than the other MPR peptides” value (FPR1) was “approximately 10 fold”, the “calcium signal in dHL-60 cells” value [3] was “positive calcium flux” and the “ERK signaling via FPR1” value [4] was “triggers”.
For “F2L: acetylated 21mer N-terminal cleavage product of heme-binding-protein-1”, the “concentrations that activate FPR2” value (FPR2) is given as “low micromolar” and the “concentrations that activate FPR3” value (FPR3) is given as “low nanomolar”.
